# Measured values from ChEMBL document CHEMBL3352705, “Anion inhibition study of the β-class carbonic anhydrase (PgiCAb) from the oral pathogen Porphyromonas gingivalis” (Bioorg Med Chem Lett, 2014).
# Molecular target: Carbonic anhydrase 2 (Homo sapiens, UniProt P00918)
compound,measurement,value
[F-].[Na+] [SODIUM FLUORIDE],Ki,> 200 mM
